Data published in publication PMC3038857, “Using Nuclear Receptor Activity to Stratify Hepatocarcinogens” (PLoS ONE, 2011).
Read-outs that look alike come from different tables or passages of the source.

Legend:
[1] = biological target: T1, AHR (aryl hydrocarbon receptor) (Homo sapiens, UniProt P35869); test: ATG_Ahr_CIS: Factorial reporter gene assay (multiplexed transcription reporter, HepG2); assay type: cell-based
T1 construct: endogenous in cells; host or cells: HepG2
T1 sequence (P35869 11-848): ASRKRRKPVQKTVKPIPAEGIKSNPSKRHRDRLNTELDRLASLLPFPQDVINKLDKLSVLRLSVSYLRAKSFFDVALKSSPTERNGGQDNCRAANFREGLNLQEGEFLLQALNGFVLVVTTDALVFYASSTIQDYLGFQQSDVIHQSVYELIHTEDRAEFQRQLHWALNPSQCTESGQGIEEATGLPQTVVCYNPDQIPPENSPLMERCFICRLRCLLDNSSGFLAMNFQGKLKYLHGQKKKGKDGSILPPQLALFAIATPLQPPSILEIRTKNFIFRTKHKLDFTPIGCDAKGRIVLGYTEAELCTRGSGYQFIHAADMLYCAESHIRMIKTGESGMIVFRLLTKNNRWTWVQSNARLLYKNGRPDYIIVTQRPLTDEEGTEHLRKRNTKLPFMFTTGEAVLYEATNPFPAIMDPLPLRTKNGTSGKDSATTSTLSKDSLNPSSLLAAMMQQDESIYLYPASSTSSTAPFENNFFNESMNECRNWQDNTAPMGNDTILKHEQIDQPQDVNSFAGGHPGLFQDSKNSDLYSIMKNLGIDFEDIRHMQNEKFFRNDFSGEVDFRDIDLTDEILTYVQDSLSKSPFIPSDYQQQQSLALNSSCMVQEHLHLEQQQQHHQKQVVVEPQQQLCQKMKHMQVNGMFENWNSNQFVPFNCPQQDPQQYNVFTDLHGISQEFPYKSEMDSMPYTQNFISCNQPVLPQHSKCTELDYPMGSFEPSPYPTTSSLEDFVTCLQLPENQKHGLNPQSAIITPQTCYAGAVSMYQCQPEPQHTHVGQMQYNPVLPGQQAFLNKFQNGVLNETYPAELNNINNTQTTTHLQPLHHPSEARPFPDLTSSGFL
Procedure: (§1) A multiple reporter transcription unit (MRTU) library consisting of 48 transcription factor binding sites was transfected into the HepG2 human liver hepatoma cell line. In addition to the cis-acting reporter genes (CIS), a modification of the approach was used to generate a trans-system (TRANS) with a mammalian one-hybrid assay consisting of an additional 25 MRTU library reporting the activity of nuclear receptor super-family members. […] These assays were performed by Attagene Inc. (Morrisville NC) under contract to EPA.
(§2) In addition to the cis-acting reporter genes (CIS), a modification of the approach was used to generate a trans-system (TRANS) with a mammalian one-hybrid assay consisting of an additional 25 MRTU library reporting the activity of nuclear receptor super-family members. […] Chemicals were then tested in the CIS and TRANS assays at seven concentrations starting at the MTC and followed by three-fold serial dilutions. These assays were performed by Attagene Inc. (Morrisville NC) under contract to EPA. Detailed description of the methods, data and analysis methods for this dataset will be presented in a separate publication.

CYP1A2 = test: CLZD_CYP1A2: Change in expression of CYP1A2 (primary human hepatocytes); assay type: cell-based; settings: 24 hr
How it was run: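 Cultured primary human hepatocytes treated with chemicals for 6, 24 or 48 hr across five concentrations spanning 0.004-40 µM, then transcript level measured by quantitative nuclease protection in a multiplexed format.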

Rat Liver [2] = settings: chronic study, ref ToxRefDB, cited from earlier work
Rat Liver [3] = settings: chronic study, ref ToxRefDB, cited from earlier work; remark: listed apart in the source
Rat Liver [4] = settings: chronic study, ref ToxRefDB, cited from earlier work; remark: listed apart in the source
PXR (NR1I2) [5] = biological target: T2, PXR (NR1I2) (Homo sapiens, UniProt O75469); test: ATG_PXRE_CIS: Factorial reporter gene assay (HepG2); assay type: cell-based; design: endogenous in cells; host or cells: HepG2
T2 sequence (O75469 1-434): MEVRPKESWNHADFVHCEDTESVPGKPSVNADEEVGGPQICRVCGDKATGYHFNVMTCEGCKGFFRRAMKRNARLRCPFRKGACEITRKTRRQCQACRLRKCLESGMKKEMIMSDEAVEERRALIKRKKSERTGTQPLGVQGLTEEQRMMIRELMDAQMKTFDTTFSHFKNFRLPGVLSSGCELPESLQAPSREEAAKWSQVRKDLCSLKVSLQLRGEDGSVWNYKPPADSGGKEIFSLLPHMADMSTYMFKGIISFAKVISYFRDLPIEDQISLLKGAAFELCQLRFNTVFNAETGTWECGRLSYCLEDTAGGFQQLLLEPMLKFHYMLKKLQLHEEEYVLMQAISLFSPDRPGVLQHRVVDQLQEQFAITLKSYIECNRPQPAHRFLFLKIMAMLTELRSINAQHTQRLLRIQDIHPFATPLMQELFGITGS
How it was run: (§3)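 Transfected HepG2 line; multiplexed reporter read-out. PXRE = cis library (48 TF sites); ERRg/FXR/PPARg = trans one-hybrid library (25 units). Dose series of 7, MTC downward by 3x.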

[6] = biological target: T3, PPARG (peroxisome proliferator-activated receptor gamma) (Homo sapiens, UniProt P37231); test: ATG_PPARg_TRANS: Factorial reporter gene assay (HepG2); assay type: cell-based
T3 construct: expressed in transfected cells; host or cells: HepG2
T3 sequence (P37231 1-505): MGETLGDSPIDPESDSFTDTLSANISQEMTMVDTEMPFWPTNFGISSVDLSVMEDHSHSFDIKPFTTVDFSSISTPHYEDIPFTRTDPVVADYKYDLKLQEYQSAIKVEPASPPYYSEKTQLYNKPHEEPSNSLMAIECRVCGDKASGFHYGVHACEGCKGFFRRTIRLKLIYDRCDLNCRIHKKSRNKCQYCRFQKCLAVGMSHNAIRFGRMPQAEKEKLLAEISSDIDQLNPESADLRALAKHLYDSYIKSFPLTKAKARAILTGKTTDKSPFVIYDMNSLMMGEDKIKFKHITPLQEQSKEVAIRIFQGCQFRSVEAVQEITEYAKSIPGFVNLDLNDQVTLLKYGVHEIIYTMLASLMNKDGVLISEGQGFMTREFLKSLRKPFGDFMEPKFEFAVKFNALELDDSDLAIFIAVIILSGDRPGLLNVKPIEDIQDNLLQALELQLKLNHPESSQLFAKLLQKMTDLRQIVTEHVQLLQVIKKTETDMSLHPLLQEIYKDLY
How it was run: as §3

CYP2B6 = test: CLZD_CYP2B6: Change in expression of CYP2B6 (primary human hepatocytes); assay type: cell-based; settings: 24 hr
How it was run: (§4)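 Five-point concentration series (0.004-40 µM) applied to primary human hepatocytes; 6/24/48 hr timepoints; transcript quantified by multiplexed nuclease protection.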

CYP3A4 = test: CLZD_CYP3A4: Change in expression of CYP3A4 (primary human hepatocytes); assay type: cell-based; settings: 24 hr
How it was run: as §4

PXR Human (NR1I2) = biological target: T4, PXR Human (NR1I2) (Homo sapiens, UniProt O75469); test: NCGC_PXR_Agonist_human: GAL4 BLAM Reporter gene assay: PXR Human; assay type: cell-based; settings: agonist mode
T4 sequence (O75469 146-434 limits assumed): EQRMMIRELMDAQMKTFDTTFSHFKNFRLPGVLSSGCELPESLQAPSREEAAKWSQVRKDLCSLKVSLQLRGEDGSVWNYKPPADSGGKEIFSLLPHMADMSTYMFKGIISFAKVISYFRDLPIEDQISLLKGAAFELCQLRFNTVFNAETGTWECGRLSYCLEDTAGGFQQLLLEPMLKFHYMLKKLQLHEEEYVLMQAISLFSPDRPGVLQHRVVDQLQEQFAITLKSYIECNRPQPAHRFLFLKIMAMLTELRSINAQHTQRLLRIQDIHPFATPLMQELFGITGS
Procedure: These assays measure binding constants and enzyme inhibition values for nuclear receptors. The targets include [drawing 67] , [drawing 68] , [drawing 69] , [drawing 70] , [drawing 71] , [drawing 72] , [drawing 73] , [drawing 74] , [drawing 75] and [drawing 76] . Each of the nuclear receptor targets was measured in agonist mode. Assays were run at the NIH Chemical Genomics Center (Rockville, MD).
Cell-based HTS Assays: These assays measuring binding constants and enzyme inhibition values for nuclear receptors. The targets include AR, ER, FXR, LXR, PPARα, PPARδ, PPARγ, RXRα, RXRβ and PXR. Each of the nuclear receptor targets was measured in both agonist and antagonist mode, but the antagonist data is still undergoing analysis due to possible interference between cytotoxicity and assay activity, so antagonist mode data were not used in the present analysis. Assays were run at the NIH Chemical Genomics Center (Rockville, MD) as part of the Tox21 collaboration. […] The R^2 was required to be ≥0.5. Values where only the highest concentration exceeded 50% activity were excluded to eliminate weak or false positives. Detailed description of the methods, data and analysis methods for this dataset will be presented in a separate publication.

Mouse Liver [7] = settings: chronic study, mouse liver; ref ToxRefDB; cited from earlier work
Mouse Liver [8] = settings: chronic study, mouse liver; ref ToxRefDB; cited from earlier work; remark: listed apart in the source
Mouse Liver [9] = settings: chronic study, mouse liver; ref ToxRefDB; cited from earlier work; remark: listed apart in the source
PXR (NR1I2) [10] = biological target: T2, PXR (NR1I2); test: ATG_PXR_TRANS: Factorial reporter gene assay (HepG2); assay type: cell-based; design: endogenous in cells; host or cells: HepG2; settings: HepG2 reporter
How it was run: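 HepG2 cells transfected with multiplexed reporter libraries: cis-acting binding-site reporters (CIS) and a one-hybrid nuclear-receptor trans system (TRANS). Chemicals tested at seven concentrations, starting at the maximum tolerated concentration with three-fold serial dilutions.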

[11] = biological target: T5, ESR1 (estrogen receptor 1) (Homo sapiens, UniProt P03372); test: ATG_ERa_TRANS: Factorial reporter gene assay (HepG2); assay type: cell-based; settings: HepG2 reporter
T5 construct: expressed in transfected cells; host or cells: HepG2
T5 sequence (P03372 whole entry): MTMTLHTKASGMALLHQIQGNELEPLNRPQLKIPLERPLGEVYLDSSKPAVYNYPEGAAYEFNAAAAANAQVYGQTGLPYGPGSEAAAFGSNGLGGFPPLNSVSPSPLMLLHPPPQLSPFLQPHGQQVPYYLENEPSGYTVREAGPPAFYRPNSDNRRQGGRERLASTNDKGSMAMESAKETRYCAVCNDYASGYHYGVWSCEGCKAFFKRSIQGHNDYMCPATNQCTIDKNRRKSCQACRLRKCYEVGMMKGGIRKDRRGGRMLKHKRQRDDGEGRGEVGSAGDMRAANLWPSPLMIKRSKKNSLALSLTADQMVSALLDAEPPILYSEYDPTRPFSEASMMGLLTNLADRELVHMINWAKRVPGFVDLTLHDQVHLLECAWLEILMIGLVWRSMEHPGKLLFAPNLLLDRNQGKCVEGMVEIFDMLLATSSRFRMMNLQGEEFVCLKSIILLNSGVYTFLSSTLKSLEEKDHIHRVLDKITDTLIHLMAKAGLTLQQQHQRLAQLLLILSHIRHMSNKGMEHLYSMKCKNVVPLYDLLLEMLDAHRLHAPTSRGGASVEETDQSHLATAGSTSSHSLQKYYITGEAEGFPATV
Procedure: as §1, §2

In the case of `Nc1c(Cl)c(Cl)nc(C(=O)O)c1Cl` [r245], the ATG_Ahr_CIS ([1]; HepG2) is given as 4.523, the CLZD_CYP1A2_24 (CYP1A2) is given as 4.952 and the CHR_Rat_Liver_1_AnyLesion (Rat Liver [2]; rat) is given as 6. For the same molecule, the CHR_Rat_Liver_2_PreneoplasticLesion (Rat Liver [3]; rat) was 0, the CHR_Rat_Liver_3_NeoplasticLesion (Rat Liver [4]; rat) was 0 and the ATG_PXRE_CIS (PXR (NR1I2) [5]; HepG2) was 4.26.
For `CCC(=O)C1C(=O)CC(C(=O)[O-])CC1=O.CCC(=O)C1C(=O)CC(C(=O)[O-])CC1=O.[Ca+2]` (stereo not shown) [r254], the ATG_Ahr_CIS ([1]; HepG2) is given as 4.215, the ATG_PPARg_TRANS ([6]; HepG2) is given as 4.409 and the CHR_Rat_Liver_1_AnyLesion (Rat Liver [2]; rat) is given as 0. The CHR_Rat_Liver_2_PreneoplasticLesion (Rat Liver [3]; rat) was 0 and the CHR_Rat_Liver_3_NeoplasticLesion (Rat Liver [4]; rat) was 0.
In the case of `CCOC(=O)COc1cc(-c2nn(C)c(OC(F)F)c2Cl)c(F)cc1Cl` [r271], the ATG_PPARg_TRANS ([6]; HepG2 reporter) is reported as 4.328, the CLZD_CYP2B6_24 (CYP2B6) is reported as 4.918 and the CLZD_CYP3A4_24 (CYP3A4) is reported as 5.138. The NCGC_PXR_Agonist_human (PXR Human (NR1I2)) was 4.477, the CHR_Mouse_Liver_1_AnyLesion (Mouse Liver [7]) was 6 and the CHR_Mouse_Liver_2_PreneoplasticLesion (Mouse Liver [8]) was 6. The CHR_Mouse_Liver_3_NeoplasticLesion (Mouse Liver [9]) was 6, the CHR_Rat_Liver_1_AnyLesion (Rat Liver [2]; rat liver) was 6 and the CHR_Rat_Liver_2_PreneoplasticLesion (Rat Liver [3]; rat liver) was 6. For the same molecule, the CHR_Rat_Liver_3_NeoplasticLesion (Rat Liver [4]; rat liver) was 0, the ATG_PXR_TRANS (PXR (NR1I2) [10]) was 4.538 and the ATG_PXRE_CIS (PXR (NR1I2) [5]; HepG2 reporter) was 4.26.
In the case of `O=c1n(Cl)c(=O)n(Cl)c(=O)n1Cl` [r288], the ATG_Ahr_CIS ([1]; HepG2 reporter) is reported as 4.509, the CLZD_CYP1A2_24 (CYP1A2) is reported as 5.117 and the ATG_PXRE_CIS (PXR (NR1I2) [5]; HepG2 reporter) is reported as 4.337.
For `Cc1c(F)c(F)c(COC(=O)C2C(/C=C(\Cl)C(F)(F)F)C2(C)C)c(F)c1F` (stereo not shown) [r294], the ATG_ERa_TRANS [11] is listed as 4.31, the CHR_Mouse_Liver_1_AnyLesion (Mouse Liver [7]) is listed as 6 and the CHR_Mouse_Liver_2_PreneoplasticLesion (Mouse Liver [8]) is listed as 6. The CHR_Mouse_Liver_3_NeoplasticLesion (Mouse Liver [9]) was 6, the CHR_Rat_Liver_1_AnyLesion (Rat Liver [2]; rat liver) was 0 and the CHR_Rat_Liver_2_PreneoplasticLesion (Rat Liver [3]; rat liver) was 0. The CHR_Rat_Liver_3_NeoplasticLesion (Rat Liver [4]; rat liver) was 0 and the ATG_PXRE_CIS (PXR (NR1I2) [5]; HepG2 reporter) was 4.886.
